Source: patent US20220289732A1, “HETEROCYCLIC WDR5 INHIBITORS AS ANTI-CANCER COMPOUNDS” (NOVARTIS AG, priority 2019, published 2022)
pIC50: −log10 of the molar value.

Key:
[1] = target: WDR5 (Homo sapiens, UniProt P61964); assay: WDR5 HTRF binding assay; settings: read-out: (a) WDR5 HTRF Pep Val v.1[Inhibitor/IC50]Qualified AC50
Method in brief: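 In this HTRF displacement format, biotinylated MLL1 WIN peptide (3762-3773, 20 nM) binds WDR5 (6 nM) in 25 mM Hepes pH 7.5 with 100 mM NaCl, 2 mM DTT and 0.1% BSA for 20 min at rt. Detection used streptavidin-APC/anti-His-Eu for 1 hr. IC50 came from dose-response fits of normalized signal; 15 nM biotin-PEG-His peptide served as counter assay.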

[2] = target: wild type MLL1 four-member complex (MLL1-4C) (Homo sapiens, UniProt P61964); assay: MLL1 LC-MS assay (SAH production); format: biochemical; settings: read-out: (b) MLL LCMS Peptide Val.v.1 Qualified AC50
Method in brief: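 SAH formation, measured by LC-MS/MS after a TFA quench containing d4-SAH, was normalised to no-compound and no-enzyme controls and fitted to a dose-response curve for IC50. Reactions ran 120 min at rt (pH 8.0 Tris buffer) with final 30 nM MLL1 four-member complex, 2.5 μM SAM and 10 μM biotinylated H3[1-21] peptide, after a 20-min enzyme/SAM-compound preincubation.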

[3] = test system: MV4-11 cells; assay: MV4-11 6-day cell growth CTG (CellTiter-Glo) assay; format: cell-based; settings: Homo sapiens, MV4-11, 144 h, 6 days, read-out: (c) MLL/WDR5 cell proliferation assay//MLL/WDR5 proliferation MV4:11 Qualified AC50
Method in brief: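 IC50 comes from a dose-response fit of % inhibition relative to DMSO controls, with viable cells measured by CellTiter-Glo luminescence. Compounds were tested over 12 points (1:3, starting at 50 μM final) on MV4-11 cells plated at 300/well and grown 6 days.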

Row | SMILES | pIC50 [1] | AC50 [2] [nM] | AC50 [3] [nM]
1 | CNc1nccn1Cc1cc2c(c(-c3cc(CO)cnc3Cl)c1)CCN(Cc1cccc(OC(F)F)c1)C2=O [Example 73, 5-(2-chloro-5-(hydroxymethyl)pyridin-3-yl)-2-(3-(difluoromethoxy)benzyl)-7-((2-(methylamino)-1H-imidazol-1-yl)methyl)-3,4-dihydroisoquinolin-1(2H)-one] | 6.00 to 8.00 | 10 to 1000 | 10 to 1000
2 | CNc1nccn1Cc1cc2c(c(-c3cc(CO)cnc3Cl)c1)CCN(Cc1ccc(F)c(OC(F)F)c1)C2=O [Example 74, 5-(2-chloro-5-(hydroxymethyl)pyridin-3-yl)-2-(3-(difluoromethoxy)-4-fluorobenzyl)-7-((2-(methylamino)-1H-imidazol-1-yl)methyl)-3,4-dihydroisoquinolin-1(2H)-one] | 6.00 to 8.00 | 10 to 1000 | 10 to 1000
3 | CNc1nccn1Cc1cc2c(c(-c3cn(C)nc3C#N)c1)CCN(Cc1ccc(F)c(OC)c1)C2=O [Example 77, 4-(2-(4-fluoro-3-methoxybenzyl)-7-((2-(methylamino)-1H-imidazol-1-yl)methyl)-1-oxo-1,2,3,4-tetrahydroisoquinolin-5-yl)-1-methyl-1H-pyrazole-3-carbonitrile] | 6.00 to 8.00 | 10 to 1000 | 10 to 1000
4 | CNc1nccn1Cc1cc2c(c(C3CC3)c1)CCN(Cc1cnc(F)c(OC)c1)C2=O [Example 79, 5-cyclopropyl-2-((6-fluoro-5-methoxypyridin-3-yl)methyl)-7-((2-(methylamino)-1H-imidazol-1-yl)methyl)-3,4-dihydroisoquinolin-1(2H)-one] | 6.00 to 8.00 | 10 to 1000 | 10 to 1000
5 | CCOc1cc([C@H](C)N2CCc3c(cc(Cn4ccnc4NC)cc3C3CC3)C2=O)cnc1C#N [Example 80, (S)-5-(1-(5-cyclopropyl-7-((2-(methylamino)-1H-imidazol-1-yl)methyl)-1-oxo-3,4-dihydroisoquinolin-2(1H)-yl)ethyl)-3-ethoxypicolinonitrile] | 6.00 to 8.00 | 10 to 1000 | 10 to 1000
6 | CCOc1cc([C@H](C)N2CCc3c(cc(Cn4ccnc4NC)cc3C3CC3)C2=O)ncc1F [Example 81, (S)-5-cyclopropyl-2-(1-(4-ethoxy-5-fluoropyridin-2-yl)ethyl)-7-((2-(methylamino)-1H-imidazol-1-yl)methyl)-3,4-dihydroisoquinolin-1(2H)-one] | 6.00 to 8.00 | 10 to 1000 | 10 to 1000
7 | CCOc1cc([C@@H](C)N2CCc3c(cc(Cn4ccnc4NC)cc3C3CC3)C2=O)ncc1C#N [Example 82, (R)-6-(1-(5-cyclopropyl-7-((2-(methylamino)-1H-imidazol-1-yl)methyl)-1-oxo-3,4-dihydroisoquinolin-2(1H)-yl)ethyl)-4-ethoxynicotinonitrile] | 6.00 to 8.00 | 10 to 1000 | 10 to 1000
8 | CCOc1cc([C@H](C)N2CCc3c(cc(Cn4ccnc4NC)cc3C3CC3)C2=O)ncc1C#N [Example 83, (S)-6-(1-(5-cyclopropyl-7-((2-(methylamino)-1H-imidazol-1-yl)methyl)-1-oxo-3,4-dihydroisoquinolin-2(1H)-yl)ethyl)-4-ethoxynicotinonitrile] | 6.00 to 8.00 | 10 to 1000 | 10 to 1000
9 | CCOc1cc(CN2CCc3c(cc(Cn4ccnc4NC)cc3C3CC3)C2=O)cnc1C#N [Example 84, 5-((5-cyclopropyl-7-((2-(methylamino)-1H-imidazol-1-yl)methyl)-1-oxo-3,4-dihydroisoquinolin-2(1H)-yl)methyl)-3-ethoxypicolinonitrile] | 6.00 to 8.00 | 10 to 1000 | 10 to 1000
10 | CNc1nccn1Cc1cc2c(c(C3CC3)c1)CCN([C@@H](C)c1cc(OC)c(F)cn1)C2=O [Example 85, (S)-5-cyclopropyl-2-(1-(5-fluoro-4-methoxypyridin-2-yl)ethyl)-7-((2-(methylamino)-1H-imidazol-1-yl)methyl)-3,4-dihydroisoquinolin-1(2H)-one] | 6.00 to 8.00 | 10 to 1000 | 10 to 1000
11 | CCn1nc(CN2CCc3c(cc(Cn4ccnc4NC)cc3C3CC3)C2=O)cc1OC [Example 86, 5-cyclopropyl-2-((1-ethyl-5-methoxy-1H-pyrazol-3-yl)methyl)-7-((2-(methylamino)-1H-imidazol-1-yl)methyl)-3,4-dihydroisoquinolin-1(2H)-one] | 6.00 to 8.00 | 10 to 1000 | 10 to 1000
12 | CCOc1cc(CN2CCc3c(cc(Cn4ccnc4NC)cc3C3CC3)C2=O)nn1C [Example 87, 5-cyclopropyl-2-((5-ethoxy-1-methyl-1H-pyrazol-3-yl)methyl)-7-((2-(methylamino)-1H-imidazol-1-yl)methyl)-3,4-dihydroisoquinolin-1(2H)-one] | 6.00 to 8.00 | 10 to 1000 | 10 to 1000
13 | CNc1nccn1Cc1cc2c(c(N3CCCC3)c1)CCN([C@@H](C)c1cc(OC)c(F)cn1)C2=O [Example 89, (S)-2-(1-(5-fluoro-4-methoxypyridin-2-yl)ethyl)-7-((2-(methylamino)-1H-imidazol-1-yl)methyl)-5-(pyrrolidin-1-yl)-3,4-dihydroisoquinolin-1(2H)-one] | > 8.00 | 10 to 1000 | 10 to 1000
14 | CCOc1cc([C@H](C)N2CCc3c(cc(Cn4ccnc4NC)cc3C(F)F)C2=O)ncc1F [Example 91, (S)-5-(difluoromethyl)-2-(1-(4-ethoxy-5-fluoropyridin-2-yl)ethyl)-7-((2-(methylamino)-1H-imidazol-1-yl)methyl)-3,4-dihydroisoquinolin-1(2H)-one] | 6.00 to 8.00 | 10 to 1000 | 10 to 1000
15 | CNc1nccn1Cc1cc2c(c(C(F)F)c1)CCN([C@@H](C)c1cc(OC)c(F)cn1)C2=O [Example 92, (S)-5-(difluoromethyl)-2-(1-(5-fluoro-4-methoxypyridin-2-yl)ethyl)-7-((2-(methylamino)-1H-imidazol-1-yl)methyl)-3,4-dihydroisoquinolin-1(2H)-one] | 6.00 to 8.00 | 10 to 1000 | 10 to 1000
16 | CNc1nccn1Cc1cc2c(c(C(F)F)c1)CCN([C@@H](C)c1cnc(F)c(OC)c1)C2=O [Example 93, (S)-5-(difluoromethyl)-2-(1-(6-fluoro-5-methoxypyridin-3-yl)ethyl)-7-((2-(methylamino)-1H-imidazol-1-yl)methyl)-3,4-dihydroisoquinolin-1(2H)-one] | 6.00 to 8.00 | 10 to 1000 | 10 to 1000
17 | CCOc1cc([C@H](C)N2CCc3ccc(Cn4ccnc4NC)cc3C2=O)cnc1Cl [Example 95, (S)-2-(1-(6-chloro-5-ethoxypyridin-3-yl)ethyl)-7-((2-(methylamino)-1H-imidazol-1-yl)methyl)-3,4-dihydroisoquinolin-1(2H)-one] | 6.00 to 8.00 | 10 to 1000 | 10 to 1000
18 | CCOc1cc(CN2CCc3ccc(Cn4ccnc4NC)cc3C2=O)cnc1C#N [Example 96, 3-ethoxy-5-((7-((2-(methylamino)-1H-imidazol-1-yl)methyl)-1-oxo-3,4-dihydroisoquinolin-2(1H)-yl)methyl)picolinonitrile] | 6.00 to 8.00 | 10 to 1000 | 10 to 1000
19 | CCOc1cc([C@H](C)N2CCc3ccc(Cn4ccnc4NC)cc3C2=O)cnc1C#N [Example 97, (S)-3-ethoxy-5-(1-(7-((2-(methylamino)-1H-imidazol-1-yl)methyl)-1-oxo-3,4-dihydroisoquinolin-2(1H)-yl)ethyl)picolinonitrile] | 6.00 to 8.00 | 10 to 1000 | 10 to 1000
